Results reported in US7959956B2, “Method for treating diabetic complications” (Korea Institute of Oriental Medicine, Ltd., priority 2004, dated 2011).

Tests used:
[1] = tested on: production of advanced glycation endproducts (bovine serum albumin + sugar mixture); test: Inhibition of production of advanced glycation endproducts (BSA + fructose/glucose, fluorescence); assay type: biochemical
Experimental: As a protein source, bovine serum albumin (hereinafter, referred to as “BSA”; Sigma, USA) was used. BSA was dissolved in 50 mM phosphate buffer (pH 7.4) to a concentration of 10 mg/ml.
As a sugar source, a mixture of 0.1 M fructose and 0.1 M glucose was used.
This sugar mixture was added to the prepared BSA solution, for use in tests.
The herbal extract mixture prepared in Example 2 was dissolved in 15% Tween80, and this solution was added to the BSA-sugar mixture and cultured at 37° C. for 30 days. At this time, 0.02% sodium azide was used as an antibacterial agent.
As a control group, a culture consisting of BSA and the sugar mixture was cultured, and as blanks to the control and test groups, the materials for the test group and the materials for the control group were used after preparation without incubation.
In order to reduce errors to the lowest possible extent, 4 samples for each group were used. Just before culturing, the samples were filled with nitrogen gas (99.999% purity) in order to prevent them being contaminated. After 30 days, the content of advanced glycation endproducts in the culture media was analyzed. The advanced glycation endproducts are fluorescent, show a brown color, are crosslinkable, and have ligands which can be recognized by cellular membrane receptors. The amount of the advanced glycation endproducts with such properties was measured with a spectrophotometer (excitation at 350 nm and release at 450 nm) so as to determine the inhibition of production of the advanced glycation endproducts.
The inhibition (%) of production of advanced glycation endproducts was calculated according to the following equation: Inhibition (%) of production=100−[(fluorescent intensity of test group−fluorescent intensity of blank to test group)/(fluorescent intensity of control group−fluorescent intensity of blank to control group)]×100
The part (1) of this Example was repeated except that extract from each of Euphorbiae radix, gingered Magnolia bark, parched Puerariae radix and Glycyrrhizae radix was dissolved in 15% Tween80 and cultured for 90 days.
Magnolol was dissolved in distilled water at concentrations of 3.33 μg/ml, 6.66 μg/ml, 13.32 μg/ml and 26.6 μg/ml, and then cultured for 37° C. for 30 days in the same manner as in the above part (1).
aminoguanidine, a positive control group, was tested in the same manner as in the above part (1) except that aminoguanidine was dissolved in distilled water at selected concentrations and cultured for 30 days and 90 days.

[2] = tested on: streptozotocin diabetes-induced SD rats; test: Streptozotocin diabetic rats: body weight, feed and water intake; assay type: in vivo, rat
From the text: Four-week-old SD male rats weighing 120-140 g were housed in cages at one animal for each cage and allowed for access to general solid food and water while adapting the animals to an animal room of this institute (the applicant).
(§1) The test animals were divided into the following four groups: (1) a normal group administered with carboxymethyl cellulose (NC+CMC); (2) a diabetes-induced group administered with carboxymethylcellulose (DC+CMC); (3) a diabetes-induced group administered with the herbal extract mixture (DC+HMP); (4) and a diabetes-induced group administered with a positive control (Eparlestat) (DC+S11). The diabetes-induced groups each consisted of 9-10 animals, and the normal group consisted of 5-6 animals. The body weights of the animals were similar between the test groups.
(§2) The test animals were adapted to the animal room and then fasted overnight. Streptozotocin was dissolved in 0.1 M citrate buffer (pH 4.5), and just then, injected into the abdominal cavities of the fasted animals at a dose of 60 mg/kg. At 2 days after administering the streptozotocin solution, tail vein blood was sampled from the animals and examined for blood glucose level. Rats having a blood glucose level of more than […] were determined to be diabetes-induced rats.
To examine a therapeutic effect against chronic diabetic complications, the rats was continued to maintain in diabetic conditions for 30 days. From day 31, the rats were administered with the drugs for 8 weeks.
Since the herbal extract mixture (HMP) and Epalrestat (S11) used in the tests are insoluble in water, they were dissolved in 1% carboxymethylcellulose before use. The normal group was administered with carboxylmethylcellulose so as to eliminate an effect caused by carboxylmethylcellulose.
(§3) For the two diabetes-induced groups other than the normal group, each of 1 g/kg of the herbal extract mixture (HMP) and 25 mg/kg of Epalrestat (S11) was dissolved in 1% CMC and administered orally to the rats by a sonde daily for 8 weeks.
After administering the samples during the administration period, the test animals were fasted for at least 15 hours at one day before autopsy, and then measured for body weight.
The body weight was measured every day, the feed intake was measured one time a week, and the water intake was measured every day.

[3] = tested on: streptozotocin diabetes-induced SD rats; test: Streptozotocin diabetic rats: anti-cataract effect (eye lens opacity); assay type: in vivo, rat; details: for Eye lens's opacity (%): mean
From the text: as §1, §2, §3
From the eyeballs removed under a microscope, the eye lenses were separated and transferred onto 24-well plates each containing 2 ml of a saline solution. Then, the eye lenses were photographed with a digital camera. The opacity of the eye lenses was analyzed by the use of an imaging system program.
The eye lenses were photographed with a camera and measured for weight. Then, the eye lenses were placed in phosphate buffer (pH 6.9) and homogenized at 4° C. For use in the measurement of enzymatic activity, some of the homogenized solution was centrifuged at 3,000 rpm for 20 minutes, and the supernatant was collected and stored at −80° C. For use in the measurement of content of sorbitol, etc., the remaining homogenized solution was added with ZnSO4 and NaOH so as to remove protein, and centrifuged at 3,000 rpm for 20 minutes, and the supernatant was collected and stored at −80° C.
The results of visual observation for the eyeballs are shown in FIG. 9, and the results of camera observation for the eye lenses are shown in FIG. 10.

[4] = tested on: streptozotocin diabetes-induced SD rats; test: Streptozotocin diabetic rats: biochemical factors in serum; assay type: in vivo, rat; details: oral daily 8 weeks; for Glucose level: plasma
From the text: as §1, §2, §3
At two-week intervals up to before autopsy, blood was taken from the orbital veins and measured for plasma glucose level with a glucose kit. The plasma glucose level was measured at 500 nm UV by a glucose oxidase method.
BUN was determined by measuring absorbance at 580 nm by a urease-indophenol method.
Triglyceride content was quantified by measuring absorbance at 550 nm by an enzymatic method (POD).
Total cholesterol level was determined by measuring absorbance at 500 nm by an enzymatic method.
Creatinine was determined by measuring absorbance at 515 nm by a modified Jaffe's method.
Protein in serum was determined by BCA assay. Serum was reacted with a bicinchonicic acid solution of bicinchonicic acid, Na2CO3, NaHCO3 and C4H4O6Na2.2H2O in 0.1N NaOH and a 4% CuSO4.5H2O solution and then measured for absorbance at 562 nm.

[5] = tested on: streptozotocin diabetes-induced SD rats; test: Streptozotocin diabetic rats: organ weight; assay type: in vivo, rat; details: oral daily 8 weeks
From the text: as §1, §2, §3
One day before autopsy, the test animals were fasted for at least 15 hours and then measured for body weight. Then, the animals were anesthetized with ethyl ether, from which blood was collected via the abdominal aorta. Some of the collected blood was treated with heparin, and some of whole blood was centrifuged at 3,000 rpm and 4° C. for 15 minutes. From each of the blood samples, plasma was isolated and stored at −80° C. before use in data analysis.
The kidneys of the animals were removed after washing by perfusion and measured for weight. Next, the kidneys were separated into cortex and medulla, which were rapidly cooled and stored at −80° C. In addition, the liver, lungs, pancreas, spleen and heart were separated and measured for weight.

[6] = diabetes-induced rats, oral daily 8 weeks

`N=C(N)NN` [Aminoguanidine, aminoguanidine] was tested, and the “Inhibition (%) of production of advanced glycation endproducts” value (“Inhibition (%)” below) ([1]; bovine, 30 days, 27.5 μg/ml, pH 7.4) was 45.78 ± 2.400%, the “Inhibition (%)” value ([1]; bovine, 30 days, 55 μg/ml, pH 7.4) was 55.43 ± 4.000% and the “Inhibition (%)” value ([1]; bovine, 30 days, 110 μg/ml, pH 7.4) was 73.52 ± 1.750%. The “Inhibition (%)” value ([1]; bovine, 30 days, 550 μg/ml, pH 7.4) was 96.41 ± 2.200%, the “IC50 (μg/ml), inhibition of production of advanced glycation endproducts” value (shortened to “IC50 (μg/ml), inhibition”) ([1]; bovine, 30 days, pH 7.4) was 34.90 µg/mL and the “Inhibition (%)” value ([1]; bovine, 90 days, 27.5 μg/ml, pH 7.4) was 39.647 ± 3.406%. The “Inhibition (%)” value ([1]; bovine, 90 days, 110 μg/ml, pH 7.4) was 65.714 ± 5.394% and the “IC50 (μg/ml), inhibition” value ([1]; bovine, 90 days, pH 7.4) was 30.80 µg/mL.
In the case of `CC(/C=C1\SC(=S)N(CC(=O)O)C1=O)=C\c1ccccc1` [Epalrestat (S11)], the “Feed intake compared to diabetes-induced group” value ([2]; oral daily 8 weeks) was “more feed than that of the diabetes-induced group”, the “Water intake compared to diabetes-induced group” value ([2]; oral daily 8 weeks) was “more water than that of the diabetes-induced group” and the “Increase in body weight” value ([2]; oral daily 8 weeks (HMP 1 g/kg, S11 25 mg/kg)) was 129.21 g. For the same compound, the “Eye lens's opacity (%)” value [3, 6] was 37.38±13.56% and the “Animals with cataract symptoms in both eyeballs on the day of autopsy” value ([3]; visual observation of eyeballs, FIG. 9) was “four of seven”.
For `CC(/C=C1\SC(=S)N(CC(=O)O)C1=O)=C\c1ccccc1` [Epalrestat], the “BUN” value [4] was 23.60 ± 5.15 mg/dL, the “Creatinin” value [4] was 1.22 ± 0.16 mg/dL and the “Total cholesterol” value [4] was 59.50 ± 13.88 mg/dL. The “Triglyceride” value [4] was 46.18 ± 8.26 mg/dL, the “Glucose level” value [4] was 197.94 mg/dL and the “Glucose level” value ([4]; listed as S11) was 197.94 ± 76.66 mg/dL. The “Protein” value ([4]; serum, BCA assay) was 10.79 ± 0.85 µg/µL, the “Body weight, early stage” value ([2]; oral daily 8 weeks (HMP 1 g/kg, S11 25 mg/kg), early stage) was 154.03 ± 45.46 g and the “Body weight, end stage” value ([2]; oral daily 8 weeks (HMP 1 g/kg, S11 25 mg/kg), end stage) was 283.24 ± 42.60 g. The “Eye lens's opacity (20 pixels/m^2)” value [3, 6] was 134.04 ± 45.00 20 pixels/m^2, the “Eye lens's opacity (%)” value ([3]; diabetes-induced rats, oral daily 8 weeks, listed as S11) was 37.38 ± 13.56 % and the “Heart absolute weight” value [5] was 0.95 ± 0.11 g. The “Heart relative weight (%)” value [5] was 0.34 ± 0.03 %, the “Kidneys absolute weight” value [5] was 3.18 ± 0.30 g and the “Kidneys relative weight (%)” value [5] was 1.14 ± 0.11 %. For the same compound, the “Liver absolute weight” value [5] was 11.63 ± 1.08 g, the “Liver relative weight (%)” value [5] was 4.15 ± 0.40 % and the “Lungs absolute weight” value [5] was 1.55 ± 0.13 g. For the same compound, the “Lungs relative weight (%)” value [5] was 0.55 ± 0.06 %, the “Pancreas absolute weight” value [5] was 0.86 ± 0.11 g and the “Pancreas relative weight (%)” value [5] was 0.31 ± 0.05 %. For the same compound, the “Spleen absolute weight” value [5] was 0.54 ± 0.09 g and the “Spleen relative weight (%)” value [5] was 0.19 ± 0.02%.
`C=CCc1ccc(O)c(-c2cc(CC=C)ccc2O)c1` [Magnolol, magnolol] was tested, and the “Inhibition (%)” value ([1]; 3.33 μg/ml, cultured for 30 days) was 36.36 ± 1.61%, the “Inhibition (%)” value ([1]; 6.66 μg/ml, cultured for 30 days) was 55.75 ± 2.11% and the “Inhibition (%)” value ([1]; 13.32 μg/ml, cultured for 30 days) was 77.05 ± 1.70%. For the same compound, the “Inhibition (%)” value ([1]; 26.64 μg/ml, cultured for 30 days) was 100% and the “IC50 (μg/ml), inhibition” value ([1]; cultured for 30 days, 37° C.) was 5.36 µg/mL.
